Read-outs that look alike come from different tables or passages of the source. Each block holds one compound with its values, some of them ahead of it.
Legend:
786-O-Hif-Luc cells = assay: Luciferase Assay; assay type: cell-based; settings: read-out: Luciferase EC50
Experimental: A pool of infected cells were then selected against 2 μg/mL of puromycin (P8833, Sigma) for 10 days followed by limited dilution to select single clones.
Each concentration was tested in triplicate. After about 24 hours, luciferase activity was determined using ONE-Glo Luciferase Assay Reagent (E6110, Promega) following the manufacturer's recommended procedure. EC50 were calculated by using Dotmatics software.

[1] = molecular target: T1, HIF-2α HIS TAG-PASB Domain (Homo sapiens, UniProt Q99814); assay: HIF-2α Scintillation Proximity Assay (SPA); assay type: binding; settings: 100 nM HIF-2α HIS TAG-PASB Domain
T1 construct: 100 nM HIF-2α HIS TAG-PASB Domain
T1 sequence (Q99814 240-350 limits assumed): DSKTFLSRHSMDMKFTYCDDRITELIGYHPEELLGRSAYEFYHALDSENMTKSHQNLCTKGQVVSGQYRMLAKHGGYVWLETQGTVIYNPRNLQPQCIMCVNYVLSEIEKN
Experimental: The total assay volume was about 100 μL in the following configuration: 2 μL compound in 100% DMSO, 88 μL buffer with protein and probe and 10 μL of SPA beads. […] The percent inhibition was determined and IC50 values were calculated using the Dotmatics system based on the following equation: % inhibition=[(high control−sample)/(high control−low control)]×100.

[2] = 786-O-Hif-Luc cells, about 24 hours
[3] = 150 nM Compound 211 probe, read-out: SPA IC50
[4] = SPA IC50, 150 nM Compound 211 probe
[5] = 24 h, 786-O-Hif-Luc cells, about 24 hours

SMILES: [2H]C1(O)c2c(ccc(Oc3cc(F)cc(Cl)c3)c2C(F)F)S(=O)(=O)C1(F)F (stereo not drawn) [Compound 135, 5-(3-Chloro-5-fluorophenoxy)-4-(difluoromethyl)-2,2-difluoro-3-hydroxy-2,3-dihydrobenzo[b]thiophene 1,1-dioxide-3-d]
EC50 (786-O-Hif-Luc cells; [2]): 10 nM | IC50 [1, 4]: < 5 nM

SMILES: O=S(=O)(c1ccc(Oc2cc(Cl)c[n+]([O-])c2)c2c1[C@H](O)C(F)(F)C2)C(F)(F)F [Compound 28, (S)-3-Chloro-5-((2,2-difluoro-1-hydroxy-7-((trifluoromethyl)sulfonyl)-2,3-dihydro-1H-inden-4-yl)oxy)pyridine 1-oxide]
EC50 (786-O-Hif-Luc cells; [5]): 173 nM | IC50 [1, 3]: 66 nM

SMILES: CS(=N)(=O)c1ccc(Oc2cc(F)cc(F)c2)c2c1[C@H](O)C(F)(F)C2 (stereo partly drawn) [Compound 10, ((S)-7-(3,5-Difluorophenoxy)-2,2-difluoro-3-hydroxy-2,3-dihydro-1H-inden-4-yl)(imino)(methyl)-λ^6-sulfanone]
EC50 (786-O-Hif-Luc cells; [5]): 277 nM | IC50 [1, 3]: 177 nM

SMILES: N#CN=S(=O)(CF)c1ccc(Oc2cc(F)cc(C#N)c2)c2c1[C@H](O)[C@H](F)C2 (single isomer, unassigned) [Compound 40]
EC50 (786-O-Hif-Luc cells; [2]): 153 nM | IC50 [1, 3]: 58 nM

SMILES: N#Cc1cc(F)cc(Oc2ccc(S(=O)(=O)C(F)(F)F)c3c2CC(F)(F)[C@H]3NCCO)c1 [Compound 55, 3-[(1S)-2,2-difluoro-1-(2-hydroxyethylamino)-7-(trifluoromethylsulfonyl)indan-4-yl]oxy-5-fluoro-benzonitrile]
EC50 (786-O-Hif-Luc cells; [5]): 3100 nM | IC50 [1, 3]: 4900 nM

SMILES: N#Cc1c(Oc2cc(F)cc(Cl)c2)ccc2c1[C@@H](O)CS2(=O)=O [Compound 112, (3R)-5-(3-chloro-5-fluoro-phenoxy)-3-hydroxy-1,1-dioxo-2,3-dihydrobenzothiophene-4-carbonitrile]
EC50 (786-O-Hif-Luc cells; [5]): 226 nM | IC50 [1, 3]: 46.5 nM

SMILES: N#CN=S(=O)(CF)c1ccc(Oc2cc(F)cc(C#N)c2)c2c1[C@H](O)C(F)(F)C2 (single isomer, unassigned) [Compound 49]
EC50 (786-O-Hif-Luc cells; [5]): 100 nM | IC50 [1, 3]: 71 nM

SMILES: CS(=O)(=O)c1ccc(Oc2cc(F)cc(C#N)c2)c2c1[C@H](O)C[C@@H]2F [Compound 59, 3-fluoro-5-[(1R,3S)-3-fluoro-1-hydroxy-7-methylsulfonyl-indan-4-yl]oxy-benzonitrile]
EC50 (786-O-Hif-Luc cells; [5]): 390 nM | IC50 [1, 3]: 230 nM

SMILES: O=S(=O)(CF)c1ccc(Oc2cccc3sccc23)c2c1C(O)C(F)(F)C2 (stereo not drawn) [Compound 22, 4-(Benzo[b]thiophen-4-yloxy)-2,2-difluoro-7-((fluoromethyl)sulfonyl)-2,3-dihydro-1H-inden-1-ol]
EC50 (786-O-Hif-Luc cells; [5]): 512 nM | IC50 [1, 3]: 230 nM

SMILES: NC1c2cc(Oc3cc(F)cc(Cl)c3)ccc2S(=O)(=O)C1(F)F (stereo not drawn) [Compound 122, 3-Amino-5-(3-chloro-5-fluorophenoxy)-2,2-difluoro-2,3-dihydrobenzo[b]thiophene 1,1-dioxide]
EC50 (786-O-Hif-Luc cells; [5]): 3720 nM | IC50 [1, 3]: 200 nM

SMILES: CS(=O)(=O)c1ccc(Oc2cc(F)cc(C#N)c2)c2c1[C@H](O)[C@H](F)[C@H]2F [Compound 58, 3-[(1S,2S,3S)-2,3-difluoro-1-hydroxy-7-methylsulfonyl-indan-4-yl]oxy-5-fluoro-benzonitrile]
EC50 (786-O-Hif-Luc cells; [5]): 1020 nM

SMILES: [2H][C@]1(O)c2c(S(C)(=O)=O)ccc(Oc3cc(F)cc(C#N)c3)c2CC1(F)F [Compound 23, (S)-3-((2,2-Difluoro-1-hydroxy-7-(methylsulfonyl)-2,3-dihydro-1H-inden-4-yl-1-d)oxy)-5-fluorobenzonitrile]
EC50 (786-O-Hif-Luc cells; 24 h): 24 nM

SMILES: N#Cc1cc(F)cc(Oc2ccc(S(=O)(=O)C(F)F)c3c2CC(F)(F)[C@H]3O)c1 [Compound 1, 3-[(1S)-7-(difluoromethylsulfonyl)-2,2-difluoro-1-hydroxy-indan-4-yl]oxy-5-fluoro-benzonitrile]
EC50 (786-O-Hif-Luc cells; [5]): 7 nM

SMILES: N#Cc1cc(F)cc(Oc2ccc(S(=O)(=O)C(F)(F)F)c3c2CC(F)(F)[C@H]3N)c1 [Compound 54, 3-[(1S)-1-amino-2,2-difluoro-7-(trifluoromethylsulfonyl)indan-4-yl]oxy-5-fluoro-benzonitrile]
EC50 (786-O-Hif-Luc cells; 24 h): 170 nM

SMILES: Cn1cc(Oc2ccc(S(=O)(=O)C(F)(F)F)c3c2CC(F)(F)[C@H]3O)cn1 [Compound 13, (S)-2,2-Difluoro-4-((1-methyl-1H-pyrazol-4-yl)oxy)-7-((trifluoromethyl)sulfonyl)-2,3-dihydro-1H-inden-1-ol]
EC50 (786-O-Hif-Luc cells; [5]): 177 nM

SMILES: [2H][C@@]1(O)c2c(ccc(Oc3cc(F)cc(C#N)c3)c2C(F)F)S(=O)(=O)C1(F)F [Compound 153, (R)-3-((4-(Difluoromethyl)-2,2-difluoro-3-hydroxy-1,1-dioxido-2,3-dihydrobenzo[b]thiophen-5-yl-3-d)oxy)-5-fluorobenzonitrile]
EC50 (786-O-Hif-Luc cells; [2]): 6 nM

SMILES: N#Cc1cc(F)cc(Oc2ccc3c(c2C(F)F)[C@@H](O)C(F)(F)S3(=O)=O)c1 (single isomer, unassigned) [Compound 113]
EC50 (786-O-Hif-Luc cells; [2]): 7 nM

Now from value to compound:

EC50 (786-O-Hif-Luc cells; [2]): 286 nM | IC50 [1, 3]: 239 nM
SMILES: N=S1(=O)c2ccc(Oc3cc(F)cc(F)c3)c(Br)c2C(O)C1(F)F (single isomer, unassigned) [Compound 142, 4-bromo-5-(3,5-difluorophenoxy)-2,2-difluoro-3-hydroxy-1-imino-2,3-dihydro-1H-1λ^4-benzo[b]thiophene 1-oxide]

EC50 (786-O-Hif-Luc cells; [5]): 1420 nM | IC50 [1, 3]: 2900 nM
SMILES: Cc1cncc(Oc2ccc3c(c2Br)[C@@H](O)C(F)(F)S3(=O)=O)c1 [Compound 192, (R)-4-bromo-2,2-difluoro-3-hydroxy-5-((5-methylpyridin-3-yl)oxy)-2,3-dihydrobenzo[b]thiophene 1,1-dioxide]

EC50 (786-O-Hif-Luc cells; [5]): 1100 nM | IC50 [1, 3]: 940 nM
SMILES: COc1c(Oc2cc(F)cc(C#N)c2)ccc2c1C(O)C(F)(F)S2(=O)=O (stereo not drawn) [Compound 197, 3-((2,2-Difluoro-3-hydroxy-4-methoxy-1,1-dioxido-2,3-dihydrobenzo[b]thiophen-5-yl)oxy)-5-fluorobenzonitrile]

EC50 (786-O-Hif-Luc cells): 149 nM | IC50 [1, 4]: 229 nM
SMILES: O=S1(=O)c2ccc(Oc3cncc(Cl)c3)c(C(F)F)c2C(O)C1(F)F (stereo not drawn) [Compound 145, 5-((5-Chloropyridin-3-yl)oxy)-4-(difluoromethyl)-2,2-difluoro-3-hydroxy-2,3-dihydrobenzo[b]thiophene 1,1-dioxide]

EC50 (786-O-Hif-Luc cells): 170 nM | IC50 [1, 4]: 120 nM
SMILES: N#Cc1cncc(Oc2ccc3c(c2C(F)F)C(O)C(F)(F)S3(=O)=O)c1 (stereo not drawn) [Compound 147, 5-((4-(Difluoromethyl)-2,2-difluoro-3-hydroxy-1,1-dioxido-2,3-dihydrobenzo[b]thiophen-5-yl)oxy)nicotinonitrile]

EC50 (786-O-Hif-Luc cells; [5]): 1430 nM | IC50 [1, 3]: 700 nM
SMILES: N#Cc1cc(F)cc(Oc2ccc3c(c2C(F)F)C(O)CS3(=O)=O)c1 (stereo not drawn) [Compound 138, 3-((4-(Difluoromethyl)-3-hydroxy-1,1-dioxido-2,3-dihydrobenzo[b]thiophen-5-yl)oxy)-5-fluorobenzonitrile]

EC50 (786-O-Hif-Luc cells; [5]): 1160 nM | IC50 [1, 3]: 1890 nM
SMILES: O=S1(=O)c2ccc(OCC3CC3)c(C(F)F)c2[C@@H](O)C1(F)F [Compound 203, (R)-5-(Cyclopropylmethoxy)-4-(difluoromethyl)-2,2-difluoro-3-hydroxy-2,3-dihydrobenzo[b]thiophene 1,1-dioxide]

EC50 (786-O-Hif-Luc cells; [5]): 366 nM | IC50 [1, 3]: 120 nM
SMILES: N#Cc1c(Oc2cc(F)cc(F)c2)ccc2c1[C@@H](O)CS2(=O)=O [Compound 178, (R)-5-(3,5-difluorophenoxy)-3-hydroxy-2,3-dihydrobenzo[b]thiophene-4-carbonitrile 1,1-dioxide]

EC50 (786-O-Hif-Luc cells; [5]): 126 nM | IC50 [1, 3]: 86 nM
SMILES: N#Cc1cc(F)cc(Oc2ccc3c(c2CF)C(O)C(F)(F)S3(=O)=O)c1 (stereo not drawn) [Compound 152, 3-((2,2-Difluoro-4-(fluoromethyl)-3-hydroxy-1,1-dioxido-2,3-dihydrobenzo[b]thiophen-5-yl)oxy)-5-fluorobenzonitrile]

EC50 (786-O-Hif-Luc cells; [5]): 427 nM | IC50 [1, 3]: 46 nM
SMILES: N#Cc1c(Oc2cc(F)cc(F)c2)ccc2c1C(O)C(F)(F)S2(=O)=O (stereo not drawn) [Compound 207, 5-(3,5-Difluorophenoxy)-2,2-difluoro-3-hydroxy-2,3-dihydrobenzo[b]thiophene-4-carbonitrile 1,1-dioxide]

EC50 (786-O-Hif-Luc cells; [5]): 57 nM | IC50 [1, 3]: 33 nM
SMILES: N[C@@H]1c2c(ccc(Oc3cc(F)cc(F)c3)c2C(F)F)S(=O)(=O)C1(F)F [Compound 165, (R)-3-Amino-4-(difluoromethyl)-5-(3,5-difluorophenoxy)-2,2-difluoro-2,3-dihydrobenzo[b]thiophene 1,1-dioxide]

EC50 (786-O-Hif-Luc cells; [5]): 308 nM | IC50 [1, 3]: 72 nM
SMILES: N#Cc1cc(Oc2ccc3c(c2C(F)F)[C@@H](O)C(F)(F)S3(=O)=O)ccc1F [Compound 201, (R)-5-((4-(Difluoromethyl)-2,2-difluoro-3-hydroxy-1,1-dioxido-2,3-dihydrobenzo[b]thiophen-5-yl)oxy)-2-fluorobenzonitrile]

EC50 (786-O-Hif-Luc cells; [5]): 544 nM | IC50 [1, 3]: 4100 nM
SMILES: N=S1(=O)c2ccc(Oc3cc(F)cc(F)c3)c(Br)c2C(O)C1(F)F (single isomer, unassigned) [Compound 141, 4-Bromo-5-(3,5-difluorophenoxy)-2,2-difluoro-3-hydroxy-1-imino-2,3-dihydro-1H-1λ^4-benzo[b]thiophene 1-oxide]

EC50 (786-O-Hif-Luc cells): 19 nM
SMILES: N#Cc1cc(F)cc(Oc2ccc3c(c2C(F)F)[C@H](O)C(F)(F)S3(=O)=O)c1 (single isomer, unassigned) [Compound 144]

— patent publication US10098878B2, “HIF-2α inhibitors for treating iron overload disorders” (The Board of Regents of the University of Texas System, priority 2014, dated 2018)
